This is an account of results in patent US11008291B2, “Methods of forming carbene-functionalized composite materials” (Queen's University at Kingston, priority 2015, dated 2021).

One data set addresses HSA (Homo sapiens, UniProt P02768). Briefly: Opioid/protein interactions on HSA-immobilized NHC-CM5 chip (SPR). Type of data set: binding. As to conditions: for Detection of opioid on HSA surface of NHC-CM5 chip: 50, 100, 200, 400 μM, FIG. 21A-D. Here is the method:
NHC-CM5 chip was used for this study. HSA was immobilized using amine-coupling chemistry. […] Three 30s-injections of 50 mM NaOH was used to wash off non-covalently bound HSA and to further stabilize the baseline. […] Unmodified dextran surface was used as a reference surface.
Opioids were first serially diluted into running buffer to final concentrations of 50, 100, 200, 400 μM. To test data quality and further equilibrate the surfaces, 4 warm-up buffer cycles were performed at a flow rate of 30 μl/min. Opioids samples were injected over the reference and HSA surfaces at a flow rate of 30 μl/min. Replicate injections of each drug concentration were analyzed. Each cycle consisted of a 1-min waiting period for monitoring of the baseline stability. Then the drug/HSA complex was allowed to associate and dissociate for 60 s and 30 s, respectively. […] Data obtained in the reference flow cell was subtracted from that obtained in the HSA immobilized flow cell.

Data set [1] has as its target bovine serum albumin (BSA) (Bos taurus, UniProt P02769). Briefly: Ferulic acid / BSA interaction on NHC-CM5 chip (SPR). The format is binding. The conditions noted are these: 100, 200, 400, 800 μM; FIG. 20. Here is the method:
NHC-CM5 (500 KDa) chip was used for this study. Bovine Serum Albumin (BSA) was immobilized (covalently bound to the sensor surface) using amine-coupling chemistry. PBS (10 mM phosphate, 138 mM NaCl, 2.7 mM KCl, pH 7.4) was used as running buffer. […] Final immobilization level of BSA of this study was around 3500 RU. Unmodified dextran surface was used as a reference surface (FC1).
Ferulic acid was first serially diluted into running buffer to final concentrations of 100, 200, 400, 800 μM. To test data quality and further equilibrate the surfaces, four warm-up buffer cycles were performed at a flow rate of 30 μl/min. Then, ferulic acid was injected over the reference and BSA surfaces at a flow rate of […] cycle consisted of a 2-min waiting period for monitoring of the baseline stability. Then the ferulic acid/BSA complex was allowed to associate and dissociate for 3-min and 3-min, respectively, and 20 mM NaOH (30 s) was used as the regeneration solution. The data was processed by subtracting from reference flow cell and blank injections—double referencing method.

Data set [2] is described as follows: Chemical stability tests of NHC films on Au(111) (XPS). The format is physicochemical. As to conditions: pH 2, THF 68° C., water RT 1 month, water 100° C., decalin, 1% H2O2; 24 h (FIGS. 7a-7g). Here is the method:
All films were prepared using the hydrogen carbonate salt (carbene precursor) 3a and the solution deposition method previously described. Data for stability measurements are given in Chemical Stability Results.
NHC films derived from iPr2bimy(H)[HCO3] (3a) were submerged in freshly prepared unbuffered solutions of varying pH (pH 2 or pH 12) in Ace Glass pressure tubes at 25° C. for 24 h. Experiments were conducted under N2 gas to minimize the possibility of pH change due to adsorption of atmospheric CO2. After this time, functionalized surfaces were rinsed in deionized water (3×2 mL) and dried in an N2 gas stream. The pH values of the solutions were adjusted using concentrated NaOH and HCl solutions in deionized water. Unbuffered solutions were employed in order to avoid potential adsorption effects of buffer ions from solution.
NHC films derived from iPr2bimy(H)[HCO3] (3a) were placed in Ace Glass pressure tubes and 3 mL of freshly distilled tetrahydrofuran (THF) was added. The tube was purged with nitrogen gas, sealed and heated to 68° C. for 24 h. After this time, the sample was cooled to RT, rinsed in THF (2×5 mL), and dried under a nitrogen gas stream.
NHC films derived from iPr2bimy(H)[HCO3] (3a) were placed in Ace Glass pressure tubes and 2 mL of decalin were added. The tubes were purged with nitrogen gas, sealed and heated to either 100° C. or 190° C. for 24 h. […]

Data set [3] in a line: Temperature programmed desorption of NHC films from Au. Type of data set: physicochemical. As to conditions: TPD, FIG. 2. Here is the method: Vapor deposition experiments were conducted in three separate stainless steel UHV chambers hosting an Ar ion sputtering gun and annealing facilities for sample cleaning. TPD data were collected in a UHV chamber (base pressure P=[…]) equipped with a quadrupole mass spectrometer (SPECTRA, Microvision Plus) in direct line-of-sight with the crystal, and a LEED/Auger spectrometer (SpectaLEED, Omicron). STM images were recorded in a third chamber (base pressure=[…]) equipped with a variable temperature scanning tunneling microscope (Omicron), and LEED optics. An electrochemically etched W tip was used for STM imaging typically employing bias voltages of ±0.6 V and tunneling currents of 300 pA. Image processing and filtering have been applied to the STM data using WSxM.

Data set [4] is described as follows: Bench stability and solubility of carbene precursors. The format is physicochemical.

HSA, sequence (P02768 25-609): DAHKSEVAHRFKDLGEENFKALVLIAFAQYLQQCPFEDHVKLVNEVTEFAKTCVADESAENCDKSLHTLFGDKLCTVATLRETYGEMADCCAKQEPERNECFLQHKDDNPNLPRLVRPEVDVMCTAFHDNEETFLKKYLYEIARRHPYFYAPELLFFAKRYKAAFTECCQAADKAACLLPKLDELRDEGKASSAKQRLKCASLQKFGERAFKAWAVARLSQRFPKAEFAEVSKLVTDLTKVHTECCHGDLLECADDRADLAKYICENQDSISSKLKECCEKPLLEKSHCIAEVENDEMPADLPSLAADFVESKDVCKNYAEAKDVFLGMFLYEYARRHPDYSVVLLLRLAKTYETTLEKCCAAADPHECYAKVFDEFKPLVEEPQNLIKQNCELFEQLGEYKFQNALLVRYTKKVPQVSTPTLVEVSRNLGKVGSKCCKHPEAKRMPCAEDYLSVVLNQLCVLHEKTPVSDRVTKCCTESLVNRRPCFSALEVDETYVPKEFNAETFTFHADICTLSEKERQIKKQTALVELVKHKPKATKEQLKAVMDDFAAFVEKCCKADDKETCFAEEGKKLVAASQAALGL
bovine serum albumin (BSA), sequence (P02769 25-607): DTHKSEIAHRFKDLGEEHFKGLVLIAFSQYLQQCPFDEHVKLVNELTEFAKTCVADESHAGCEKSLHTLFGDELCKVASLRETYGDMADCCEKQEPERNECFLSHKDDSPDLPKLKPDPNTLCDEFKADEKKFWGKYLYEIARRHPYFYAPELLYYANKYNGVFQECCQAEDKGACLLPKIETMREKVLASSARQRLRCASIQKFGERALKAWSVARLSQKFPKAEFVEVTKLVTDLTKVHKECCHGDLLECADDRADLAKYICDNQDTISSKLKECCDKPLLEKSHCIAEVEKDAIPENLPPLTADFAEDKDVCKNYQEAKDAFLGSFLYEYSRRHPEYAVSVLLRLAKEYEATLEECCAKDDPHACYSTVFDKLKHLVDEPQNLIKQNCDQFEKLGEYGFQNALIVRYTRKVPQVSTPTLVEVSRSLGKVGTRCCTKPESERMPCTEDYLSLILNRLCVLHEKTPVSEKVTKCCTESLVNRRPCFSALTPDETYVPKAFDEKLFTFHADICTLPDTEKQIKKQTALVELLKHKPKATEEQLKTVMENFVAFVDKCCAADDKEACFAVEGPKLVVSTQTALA

For `CC(=O)Oc1ccc2c3c1O[C@H]1[C@@H](OC(C)=O)C=C[C@H]4[C@@H](C2)N(C)CC[C@@]341` [heroin], at HSA, the “Detection of opioid on HSA surface of NHC-CM5 chip” value is given as “successfully detected”. In addition, on HSA (lowest of 50, 100, 200, 400 μM), the “Detectability at the lowest concentration” value is “not detectable”.
With `CNC1(c2ccccc2Cl)CCCCC1=O` (stereo not shown) [ketamine], at HSA, the “Detection of opioid on HSA surface of NHC-CM5 chip” value was “successfully detected”.
Take `COc1cc(C=CC(=O)O)ccc1O` [ferulic acid, 4-hydroxy-3-methoxycinnamic acid]: the “Sensing of ferulic acid by BSA pre-immobilized NHC-CM5 surface” value in data set [1] was “can sense”.
Regarding `CC(C)n1c[n+](C(C)C)c2ccccc21` [Compound 3a, 1,3-Diisopropylbenzimidazolium hydrogen carbonate], the “XPS spectra of NHC SAM on gold derived from the precursor, before vs after treatment” value in data set [2] is “remained unchanged”. The “Maximum desorption temperature of NHC film from Au” value in data set [3] is 605 K. The “Solubility in THF and DCE” value in data set [4] (THF, DCE) is listed as “mild solubility”. Also, the “Stability of the solid” value in data set [4] (ambient, in air) was “bench-stable”. For the same compound, the “Solubility in ethanol and methanol” value in data set [4] (ethanol, methanol) is listed as “soluble”. Moreover, the Solubility in water result in data set [4] (water) was “highly soluble”.
